From PubChem BioAssay AID651806 (Broad Institute, 2012) come the findings set out here.

Activity calls are given as the source filed them.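 How the source made its calls: active means AC50 no higher than twice the top valid tested dose, with signal falling as dose rises; inconclusive means flat fit with partial inhibition, or a poor-quality fit; inactive means the rest, plus effects in the rising direction.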

For the assay, the target named is Kelch-like ECH-associated protein 1 (Homo sapiens) (UniProt Q14145). As to the kind of experiment: disruptors of Keap1/Nrf2 protein interaction – biochemical, fluorescence polarization, dry powder, set 3, dose response (AID 651806). Conditions: Keap1 Kelch/FITC-Nrf2 peptide fluorescence polarization; at 50 µM (top of the series).
Chain of Kelch-like ECH-associated protein 1 (Homo sapiens) (Q14145 whole entry, looked up): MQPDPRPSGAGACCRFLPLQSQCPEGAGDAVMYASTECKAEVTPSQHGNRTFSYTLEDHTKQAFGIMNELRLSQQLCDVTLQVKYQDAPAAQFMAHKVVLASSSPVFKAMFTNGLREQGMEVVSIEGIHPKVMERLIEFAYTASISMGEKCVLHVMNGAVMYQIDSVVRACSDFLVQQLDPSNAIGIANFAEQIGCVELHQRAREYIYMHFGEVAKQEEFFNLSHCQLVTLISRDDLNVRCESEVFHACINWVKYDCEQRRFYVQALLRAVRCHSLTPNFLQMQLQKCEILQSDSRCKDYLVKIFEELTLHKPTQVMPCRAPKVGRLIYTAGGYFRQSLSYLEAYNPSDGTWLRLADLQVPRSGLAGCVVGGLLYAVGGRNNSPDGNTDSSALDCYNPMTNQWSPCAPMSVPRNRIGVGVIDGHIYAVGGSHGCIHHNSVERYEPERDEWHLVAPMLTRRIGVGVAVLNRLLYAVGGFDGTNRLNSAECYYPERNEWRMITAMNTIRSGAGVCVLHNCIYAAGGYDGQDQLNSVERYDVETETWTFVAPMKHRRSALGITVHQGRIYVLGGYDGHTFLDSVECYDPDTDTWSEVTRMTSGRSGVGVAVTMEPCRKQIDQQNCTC
Take `O=C(NC[C@@H]1c2ccccc2CCN1C(=O)[C@@H]1CCCC[C@@H]1C(=O)O)c1ccc(CCl)cc1`: the “activity change, negative = inhibition” value was “inactive”.

Take `O=C(O)CCC(=O)N1CCc2ccccc2C1CN1C(=O)c2ccccc2C1=O` (stereo not given): the “activity change, negative = inhibition” value was “inactive”.

For `Cc1cc(C)c(S(=O)(=O)Nc2nc(NCCO)nc3ccccc23)c(C)c1`, the “activity change, negative = inhibition” value was “inactive”.

In the case of `O=C(NCCO)c1ccccc1C(=O)NC[C@@H]1c2ccccc2CCN1C(=O)C1CCCCC1C(=O)O` (stereo not given in full), the “activity change, negative = inhibition” value is “inactive”.

Turning to `O=C(O)C1CCCCC1C(=O)NCC1c2ccccc2CCN1C(=O)Cc1ccccc1` (stereo not given), the “activity change, negative = inhibition” value is “inactive”.
